Data on two molecules can be found in ChEMBL document CHEMBL1133225.

Assay [1] addresses Acetylcholinesterase (Electrophorus electricus) (UniProt O42275). The experiment in a line: Compound was tested against electric eel Acetylcholinesterase; Inactive.
Assay [2] deals with T1, Acetylcholinesterase (Mus musculus) (UniProt P21836).
T1 sequence (whole entry): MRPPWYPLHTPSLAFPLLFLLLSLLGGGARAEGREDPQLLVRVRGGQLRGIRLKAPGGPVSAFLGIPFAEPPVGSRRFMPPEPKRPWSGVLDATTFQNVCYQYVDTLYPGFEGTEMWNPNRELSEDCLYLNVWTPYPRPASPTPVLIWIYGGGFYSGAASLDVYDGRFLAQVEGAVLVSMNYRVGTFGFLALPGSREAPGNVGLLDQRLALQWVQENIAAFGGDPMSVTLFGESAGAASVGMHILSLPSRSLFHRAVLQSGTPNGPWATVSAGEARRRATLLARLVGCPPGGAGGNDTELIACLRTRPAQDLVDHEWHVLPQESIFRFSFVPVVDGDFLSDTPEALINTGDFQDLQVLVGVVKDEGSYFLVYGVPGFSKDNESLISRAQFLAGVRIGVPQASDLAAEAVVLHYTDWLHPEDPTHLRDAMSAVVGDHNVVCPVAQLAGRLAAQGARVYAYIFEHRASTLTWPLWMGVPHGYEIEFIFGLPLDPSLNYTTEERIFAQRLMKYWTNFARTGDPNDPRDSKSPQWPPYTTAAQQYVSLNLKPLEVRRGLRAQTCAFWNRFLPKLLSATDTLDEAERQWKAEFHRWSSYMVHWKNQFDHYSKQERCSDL
The assay is described as follows: Compound was tested against recombinant mouse Acetylcholinesterase; 5-40 uM, Modest inhibition.

Molecules are shown by their SMILES. Active and inactive are the calls of the source. The calls are words filed in the database; no cut-off is given here.

Chain of Acetylcholinesterase (Electrophorus electricus) (O42275 24-633 limits assumed): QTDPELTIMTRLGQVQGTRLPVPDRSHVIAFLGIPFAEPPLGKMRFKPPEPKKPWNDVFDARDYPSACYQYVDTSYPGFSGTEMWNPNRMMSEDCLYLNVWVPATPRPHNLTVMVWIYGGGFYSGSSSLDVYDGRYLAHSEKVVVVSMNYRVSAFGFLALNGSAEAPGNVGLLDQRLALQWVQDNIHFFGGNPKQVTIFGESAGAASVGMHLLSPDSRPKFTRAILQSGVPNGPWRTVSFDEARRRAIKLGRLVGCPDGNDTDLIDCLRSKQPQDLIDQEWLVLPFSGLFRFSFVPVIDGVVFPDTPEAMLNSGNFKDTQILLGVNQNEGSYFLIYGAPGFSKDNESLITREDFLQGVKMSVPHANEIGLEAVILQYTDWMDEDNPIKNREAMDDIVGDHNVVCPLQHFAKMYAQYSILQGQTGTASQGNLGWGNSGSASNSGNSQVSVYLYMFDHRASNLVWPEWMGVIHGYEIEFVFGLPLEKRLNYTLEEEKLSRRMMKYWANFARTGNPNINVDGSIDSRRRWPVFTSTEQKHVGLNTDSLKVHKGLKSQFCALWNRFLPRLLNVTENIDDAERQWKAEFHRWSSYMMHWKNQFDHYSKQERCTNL

Consider `COP(=O)(CC(=O)N[C@@H](CCCCNS(=O)(=O)c1ccc2ccc3cccc4ccc1c2c34)C(N)=O)OC`, for which, in assay [1], the result was inactive. Moreover, the Concentration in assay [2] worked out at 40 µM.

Regarding `COP(=O)(CC(=O)N[C@@H](CCCCNS(=O)(=O)c1ccc2ccc3cccc4ccc1c2c34)C(N)=O)SC` (some centres undefined), in assay [1], the result was inactive. Besides, in assay [2], the Concentration amounted to 40 µM.
